Read-outs that look alike come from different tables or passages of the source.
Experiments:
[1] = tested on: SK-OV-3; test: NCI in-vitro testing, SK-OV-3 (Ovarian Cancer)
[2] = tested on: HOP-92; test: NCI in-vitro testing, HOP-92 (Non-Small Cell Lung Cancer)
[3] = tested on: HT29; test: NCI in-vitro testing, HT29 (Colon Cancer)
[4] = tested on: SF-268; test: NCI in-vitro testing, SF-268 (CNS Cancer)
[5] = tested on: RPMI-8226; test: NCI in-vitro testing, RPMI-8226 (Leukemia)
[6] = tested on: HL-60(TB); test: NCI in-vitro testing, HL-60(TB) (Leukemia)
[7] = tested on: MDA-MB-435; test: NCI in-vitro testing, MDA-MB-435 (Breast Cancer)
[8] = tested on: H460 cells; details: Table 1, value is the negative log10 of mol/L
[9] = tested on: MDA-MB-231/ATCC; test: NCI in-vitro testing, MDA-MB-231/ATCC (Breast Cancer)
[10] = tested on: 786-0; test: NCI in-vitro testing, 786-0 (Renal Cancer)
[11] = tested on: SN12C; test: NCI in-vitro testing, SN12C (Renal Cancer)
[12] = tested on: SNB-19; test: NCI in-vitro testing, SNB-19 (CNS Cancer)
[13] = tested on: ACHN; test: NCI in-vitro testing, ACHN (Renal Cancer)
[14] = tested on: SW-620; test: NCI in-vitro testing, SW-620 (Colon Cancer)

O=Cc1cn(Cc2cccc(Cl)c2)c2ccccc12 [Oncrasin K027, 1-(3-chlorobenzyl)-1H-indole-3-carbaldehyde]
GI50 ([1]; Homo sapiens, SK-OV-3): 1820 nM
CC50 ([1]; Homo sapiens, SK-OV-3, read-out: LC50): > 100 µM
TGI ([1]; SK-OV-3): 2.95E−5 Molar
Percent Growth ([1]; SK-OV-3, Log10 Concentration −4.0 Molar): −18%
Percent Growth ([1]; SK-OV-3, Log10 Concentration −5.0 Molar): 16%
Percent Growth ([1]; SK-OV-3, Log10 Concentration −6.0 Molar): 62%
Percent Growth ([1]; SK-OV-3, Log10 Concentration −7.0 Molar): 85%
Percent Growth ([1]; SK-OV-3, Log10 Concentration −8.0 Molar): 96%
Percent Growth ([2]; HOP-92, Log10 Concentration −4.0 Molar): −60%
Percent Growth ([2]; HOP-92, Log10 Concentration −5.0 Molar): 34%
Percent Growth ([2]; HOP-92, Log10 Concentration −6.0 Molar): 89%
Percent Growth ([2]; HOP-92, Log10 Concentration −7.0 Molar): 81%
Percent Growth ([2]; HOP-92, Log10 Concentration −8.0 Molar): 97%
GI50 ([2]; Homo sapiens, HOP-92): 5.17 µM
CC50 ([2]; Homo sapiens, HOP-92, read-out: LC50): 77.8 µM
TGI ([3]; HT29): 2.01E−6 Molar
Percent Growth ([3]; HT29, Log10 Concentration −4.0 Molar): −66%
Percent Growth ([3]; HT29, Log10 Concentration −5.0 Molar): 29%
Percent Growth ([3]; HT29, Log10 Concentration −6.0 Molar): 68%
Percent Growth ([3]; HT29, Log10 Concentration −7.0 Molar): 79%
Percent Growth ([3]; HT29, Log10 Concentration −8.0 Molar): 103%
GI50 ([3]; Homo sapiens, HT-29): 1.83 nM
CC50 ([3]; Homo sapiens, HT-29, read-out: LC50): 6.76 µM
GI50 ([4]; Homo sapiens, SF-268): 1240 nM
CC50 ([4]; Homo sapiens, SF-268, read-out: LC50): > 100 µM
TGI ([4]; SF-268): 4.58E−5 Molar
Percent Growth ([4]; SF-268, Log10 Concentration −4.0 Molar): −30%
Percent Growth ([4]; SF-268, Log10 Concentration −5.0 Molar): 58%
Percent Growth ([4]; SF-268, Log10 Concentration −6.0 Molar): 94%
Percent Growth ([4]; SF-268, Log10 Concentration −7.0 Molar): 93%
Percent Growth ([4]; SF-268, Log10 Concentration −8.0 Molar): 106%
GI50 ([5]; Homo sapiens, RPMI-8226): 372 nM
CC50 ([5]; Homo sapiens, RPMI-8226, read-out: LC50): > 100 µM
TGI ([5]; RPMI-8226): 3.19E−6 Molar
Percent Growth ([5]; RPMI-8226, Log10 Concentration −4.0 Molar): −35%
Percent Growth ([5]; RPMI-8226, Log10 Concentration −5.0 Molar): −23%
Percent Growth ([5]; RPMI-8226, Log10 Concentration −6.0 Molar): 24%
Percent Growth ([5]; RPMI-8226, Log10 Concentration −7.0 Molar): 85%
Percent Growth ([5]; RPMI-8226, Log10 Concentration −8.0 Molar): 119%
TGI ([6]; HL-60(TB)): 1.28E−5 Molar
Percent Growth ([6]; HL-60(TB), Log10 Concentration −4.0 Molar): −78%
Percent Growth ([6]; HL-60(TB), Log10 Concentration −5.0 Molar): 9%
Percent Growth ([6]; HL-60(TB), Log10 Concentration −6.0 Molar): 89%
Percent Growth ([6]; HL-60(TB), Log10 Concentration −7.0 Molar): 85%
Percent Growth ([6]; HL-60(TB), Log10 Concentration −8.0 Molar): 95%
GI50 ([6]; Homo sapiens, HL-60): 2100 nM
CC50 ([6]; Homo sapiens, HL-60, read-out: LC50): 48.1 µM
GI50 ([7]; Homo sapiens, MDA-MB-435): 1930 nM
CC50 ([7]; Homo sapiens, MDA-MB-435, read-out: LC50): > 100 µM
TGI ([7]; MDA-MB-435): 5.47E−5 Molar
Percent Growth ([7]; MDA-MB-435, Log10 Concentration −4.0 Molar): −29%
Percent Growth ([7]; MDA-MB-435, Log10 Concentration −5.0 Molar): 81%
Percent Growth ([7]; MDA-MB-435, Log10 Concentration −6.0 Molar): 96%
Percent Growth ([7]; MDA-MB-435, Log10 Concentration −7.0 Molar): 100%
Percent Growth ([7]; MDA-MB-435, Log10 Concentration −8.0 Molar): 102%
IC50 in H460 cells ([8]; listed as K27): 7
IC50 in H460 cells [8]: 8.43
GI50 ([9]; Homo sapiens, MDA-MB-231): 11 µM
CC50 ([9]; Homo sapiens, MDA-MB-231, read-out: LC50): > 100 µM
TGI ([9]; MDA-MB-231/ATCC): 4.23E−5 Molar
Percent Growth ([9]; MDA-MB-231/ATCC, Log10 Concentration −4.0 Molar): −32%
Percent Growth ([9]; MDA-MB-231/ATCC, Log10 Concentration −5.0 Molar): 55%
Percent Growth ([9]; MDA-MB-231/ATCC, Log10 Concentration −6.0 Molar): 109%
Percent Growth ([9]; MDA-MB-231/ATCC, Log10 Concentration −7.0 Molar): 120%
Percent Growth ([9]; MDA-MB-231/ATCC, Log10 Concentration −8.0 Molar): 105%
TGI ([10]; 785-0): 2.19E−5 Molar
Percent Growth ([10]; 785-0, Log10 Concentration −4.0 Molar): −52%
Percent Growth ([10]; 785-0, Log10 Concentration −5.0 Molar): 27%
Percent Growth ([10]; 785-0, Log10 Concentration −6.0 Molar): 70%
Percent Growth ([10]; 785-0, Log10 Concentration −7.0 Molar): 88%
Percent Growth ([10]; 785-0, Log10 Concentration −8.0 Molar): 69%
GI50 ([10]; Homo sapiens, 786-0): 3.4 µM
CC50 ([10]; Homo sapiens, 786-0, read-out: LC50): 84.7 µM
TGI [11]: 1.94E−5 Molar
GI50 ([11]; Homo sapiens): 3.56 µM
CC50 ([11]; Homo sapiens, read-out: LC50): 67.2 µM
Percent Growth ([11]; Log10 Concentration −4.0 Molar): −66%
Percent Growth ([11]; Log10 Concentration −5.0 Molar): 27%
Percent Growth ([11]; Log10 Concentration −6.0 Molar): 79%
Percent Growth ([11]; Log10 Concentration −7.0 Molar): 93%
Percent Growth ([11]; Log10 Concentration −8.0 Molar): 97%
GI50 ([12]; Homo sapiens, SNB-19): 17.6 µM
CC50 ([12]; Homo sapiens, SNB-19, read-out: LC50): > 100 µM
TGI ([12]; SNB-19): 5.89E−5 Molar
Percent Growth ([12]; SNB-19, Log10 Concentration −4.0 Molar): −24%
Percent Growth ([12]; SNB-19, Log10 Concentration −5.0 Molar): 74%
Percent Growth ([12]; SNB-19, Log10 Concentration −6.0 Molar): 97%
Percent Growth ([12]; SNB-19, Log10 Concentration −7.0 Molar): 97%
Percent Growth ([12]; SNB-19, Log10 Concentration −8.0 Molar): 103%
TGI [13]: 2.25E−5 Molar
GI50 ([13]; Homo sapiens): 2880 nM
CC50 ([13]; Homo sapiens, read-out: LC50): > 100 µM
Percent Growth ([13]; Log10 Concentration −4.0 Molar): −30%
Percent Growth ([13]; Log10 Concentration −5.0 Molar): 16%
Percent Growth ([13]; Log10 Concentration −6.0 Molar): 76%
Percent Growth ([13]; Log10 Concentration −7.0 Molar): 92%
Percent Growth ([13]; Log10 Concentration −8.0 Molar): 99%
GI50 ([14]; Homo sapiens, SW-620): 571 nM
CC50 ([14]; Homo sapiens, SW-620, read-out: LC50): > 100 µM
TGI ([14]; SW-620): 1.80E−5 Molar
Percent Growth ([14]; SW-620, Log10 Concentration −4.0 Molar): −46%
Percent Growth ([14]; SW-620, Log10 Concentration −5.0 Molar): 16%
Percent Growth ([14]; SW-620, Log10 Concentration −6.0 Molar): 39%
Percent Growth ([14]; SW-620, Log10 Concentration −7.0 Molar): 83%
Percent Growth ([14]; SW-620, Log10 Concentration −8.0 Molar): 84%

Reference: patent US8883841B2, “Oncogenic ras-specific cytotoxic compound and methods of use thereof” (The Board of Regents of the University of Texas System, priority 2005, dated 2014)
